The source of these data is publication PMC8286840, “Identifying SARS-CoV-2 antiviral compounds by screening for small molecule inhibitors of Nsp3 papain-like protease” (Biochemical Journal, 2021).

SMILES strings stand for the structures. Counter-ions that a name gives are not always drawn. Like-named read-outs stand apart in the source and are kept apart here.

In assay [1] the target is T1, SARS-CoV-2 PLpro (nsp3 1564–1878) (Severe acute respiratory syndrome coronavirus 2, UniProt P0DTD1). The experiment in a line: biochemical. Also on record: FRET-quenched peptide (Pro3) cleavage by PLpro, 10 min pre-incubation, slope over 20 min, normalised to no-compound control. The settings on record: low concentration screen, read-out: % of control remaining.
Assay [2] concerns the target T1, SARS-CoV-2 PLpro (nsp3 1564–1878). The experiment in a line: biochemical. Also on record: FRET-quenched peptide (Pro3) cleavage by PLpro, 10 min pre-incubation, slope over 20 min, normalised to no-compound control. The note with it: high concentration screen, read-out: % of control remaining.

Regarding `O=C(O)COc1ccc(C(=O)c2cccs2)c(Cl)c1Cl` [Tienilic Acid], in assay [1] (Well no.=5851), the remaining activity at 1.25 µM stood at 105%. Further, in assay [2] (Well no.=5851), the remaining activity at 3.75 µM came out at 102%.
With `CN(C)c1cc(NC(=O)CNC(C)(C)C)c(O)c2c1C[C@H]1C[C@H]3[C@H](N(C)C)C(O)=C(C(N)=O)C(=O)[C@@]3(O)C(O)=C1C2=O` [Tigecycline], the remaining activity at 1.25 µM in assay [1] (Well no.=4813) was found to be 99%. Moreover, the remaining activity at 3.75 µM in assay [2] (Well no.=4813) came to 107%.
Regarding `CC[C@H]1OC(=O)C[C@@H](O)[C@H](C)[C@@H](O[C@@H]2O[C@H](C)[C@@H](O)[C@H](N(C)C)[C@H]2O)[C@@H](CCN2C[C@H](C)C[C@H](C)C2)C[C@@H](C)C(=O)/C=C/C(C)=C/[C@@H]1CO[C@@H]1O[C@H](C)[C@@H](O)[C@@H](OC)[C@H]1OC` [Tilmicosin], the remaining activity at 1.25 µM in assay [1] (Well no.=4746) came out at 97.6%. In addition, the remaining activity at 3.75 µM in assay [2] (Well no.=4746) amounted to 96.6%.
Turning to `CCS(=O)(=O)CCn1c([N+](=O)[O-])cnc1C` [Tinidazole], the remaining activity at 1.25 µM in assay [1] (Well no.=1958) came out at 93%. Further, the remaining activity at 3.75 µM in assay [2] (Well no.=1958) amounted to 94.1%.
Consider `Clc1ccc(C(Cn2ccnc2)OCc2ccsc2Cl)c(Cl)c1` (stereo not drawn) [Tioconazole], for which, in assay [1] (Well no.=1956), the remaining activity at 1.25 µM was determined as 103%. Besides, the remaining activity at 3.75 µM in assay [2] (Well no.=1956) came to 104%.
In the case of `C/N=C(/NC#N)NCCSCc1csc(NC(=N)N)n1` [Tiotidine], the remaining activity at 1.25 µM in assay [1] (Well no.=1877) is 98.5%. Moreover, the remaining activity at 3.75 µM in assay [2] (Well no.=1877) was 98.9%.
For `C[N+]1(C)[C@@H]2C[C@@H](OC(=O)C(O)(c3cccs3)c3cccs3)C[C@H]1[C@@H]1O[C@@H]12` [Tiotropium (Bromide)], the remaining activity at 1.25 µM in assay [1] (Well no.=7533) stood at 96.7%. The remaining activity at 3.75 µM in assay [2] (Well no.=7533) turned out to be 95.1%.
As to `C[N+]1(C)[C@@H]2C[C@@H](OC(=O)C(O)(c3cccs3)c3cccs3)C[C@H]1[C@@H]1O[C@@H]12` [Tiotropium Bromide hydrate], the remaining activity at 1.25 µM in assay [1] (Well no.=4912) worked out at 100%. Moreover, the remaining activity at 3.75 µM in assay [2] (Well no.=4912) is 95.8%.
Regarding `C[N+]1(C)[C@@H]2C[C@@H](OC(=O)C(O)(c3cccs3)c3cccs3)C[C@H]1[C@@H]1O[C@@H]12` [Tiotropium Bromide], the remaining activity at 1.25 µM in assay [1] (Well no.=2108) amounted to 102%. Besides, the remaining activity at 3.75 µM in assay [2] (Well no.=2108) is 102%.
For the compound `O=c1oc2cc(O)ccc2s1` [Tioxolone], the remaining activity at 1.25 µM in assay [1] (Well no.=4952) is 95.3%. Further, in assay [2] (Well no.=4952), the remaining activity at 3.75 µM worked out at 91.8%.
In the case of `N=C1CCCN1Cc1[nH]c(=O)[nH]c(=O)c1Cl` [Tipiracil hydrochloride], in assay [1] (Well no.=8154), the remaining activity at 1.25 µM turned out to be 95.9%. For the same compound, the remaining activity at 3.75 µM in assay [2] (Well no.=8154) is 95.8%.
Regarding `O=C(O)C(=O)c1cn(Cc2ccccc2)c2ccc(-c3ccc(OC(F)(F)F)cc3)cc12` [Tiplaxtinin], the remaining activity at 1.25 µM in assay [1] (Well no.=5648) stood at 92.2%. Further, the remaining activity at 3.75 µM in assay [2] (Well no.=5648) stood at 93.4%.
With `CCCCS(=O)(=O)N[C@@H](Cc1ccc(OCCCCC2CCNCC2)cc1)C(=O)O` [Tirofiban hydrochloride monohydrate], the remaining activity at 1.25 µM in assay [1] (Well no.=5469) was 95.9%. Besides, in assay [2] (Well no.=5469), the remaining activity at 3.75 µM was found to be 99.6%.
Regarding `COc1cc2nccc(Oc3ccc(NC(=O)Nc4cc(C)on4)c(Cl)c3)c2cc1OC` [Tivozanib], the remaining activity at 1.25 µM in assay [1] (Well no.=2932) turned out to be 96.1%. Further, the remaining activity at 3.75 µM in assay [2] (Well no.=2932) is 99%.
`Clc1ccc2nsnc2c1NC1=NCCN1` [Tizanidine (hydrochloride)]: in assay [1] (Well no.=6612), the remaining activity at 1.25 µM was determined as 105%. Moreover, the remaining activity at 3.75 µM in assay [2] (Well no.=6612) stood at 96%.
`Clc1ccc2nsnc2c1NC1=NCCN1` [Tizanidine HCl]: the remaining activity at 1.25 µM in assay [1] (Well no.=4851) is 101%. In addition, in assay [2] (Well no.=4851), the remaining activity at 3.75 µM stood at 99.7%.
For `Clc1ccc2nsnc2c1NC1=NCCN1` [Tizanidine.HCl], the remaining activity at 1.25 µM in assay [1] (Well no.=1563) worked out at 98.4%. Besides, the remaining activity at 3.75 µM in assay [2] (Well no.=1563) was 98%.
For `NC[C@H]1O[C@H](O[C@H]2[C@H](O)[C@@H](O[C@H]3O[C@H](CO)[C@@H](O)[C@H](N)[C@H]3O)[C@H](N)C[C@@H]2N)[C@H](N)C[C@@H]1O` [Tobramycin (free base)], the remaining activity at 1.25 µM in assay [1] (Well no.=1960) amounted to 96.2%. For the same compound, in assay [2] (Well no.=1960), the remaining activity at 3.75 µM turned out to be 95.9%.
In the case of `C[C@@H]1CCN(C(=O)CC#N)C[C@@H]1N(C)c1ncnc2[nH]ccc12` [Tofacitinib citrate], the remaining activity at 1.25 µM in assay [1] (Well no.=5551) stood at 98.9%. In addition, in assay [2] (Well no.=5551), the remaining activity at 3.75 µM turned out to be 109%.
On to `CCC1C(C)=NN=C(c2ccc(OC)c(OC)c2)c2cc(OC)c(OC)cc21` (stereo not drawn) [Tofisopam], for which, in assay [1] (Well no.=5780), the remaining activity at 1.25 µM turned out to be 103%. Further, the remaining activity at 3.75 µM in assay [2] (Well no.=5780) was determined as 103%.
In the case of `CCc1ccc(Cc2ccc3c(c2)[C@]2(OC3)O[C@H](CO)[C@@H](O)[C@H](O)[C@H]2O)cc1` [Tofogliflozin(CSG 452)], the remaining activity at 1.25 µM in assay [1] (Well no.=8776) turned out to be 101%. The remaining activity at 3.75 µM in assay [2] (Well no.=8776) stood at 102%.
With `Cc1ccc(S(=O)(=O)NC(=O)NN2CCCCCC2)cc1` [Tolazamide], the remaining activity at 1.25 µM in assay [1] (Well no.=1523) was found to be 93.9%; in assay [1] (Well no.=1810), 100%. Further, the remaining activity at 3.75 µM in assay [2] (Well no.=1523) came to 94.7%; in assay [2] (Well no.=1810), 93.8%.
On to `c1ccc(CC2=NCCN2)cc1` [Tolazoline (hydrochloride)], for which the remaining activity at 1.25 µM in assay [1] (Well no.=6231) stood at 104%. For the same compound, the remaining activity at 3.75 µM in assay [2] (Well no.=6231) came out at 107%.
Consider `CCCCNC(=O)NS(=O)(=O)c1ccc(C)cc1` [Tolbutamide], for which the remaining activity at 1.25 µM in assay [1] (Well no.=1329) came to 107%; in assay [1] (Well no.=1601) it was 99.7%. The remaining activity at 3.75 µM in assay [2] (Well no.=1329) was determined as 104%; in assay [2] (Well no.=1601), 97.6%.
With `Cc1ccc(C(=O)c2cc(O)c(O)c([N+](=O)[O-])c2)cc1` [Tolcapone], in assay [1] (Well no.=1790), the remaining activity at 1.25 µM came to 97.4%. For the same compound, the remaining activity at 3.75 µM in assay [2] (Well no.=1790) turned out to be 96%.
Consider `Cc1c(Cl)cccc1Nc1ccccc1C(=O)O` [Tolfenamic acid], for which, in assay [1] (Well no.=1996), the remaining activity at 1.25 µM is 97.1%. The remaining activity at 3.75 µM in assay [2] (Well no.=1996) came to 99.1%.
`CCOC(=O)C1=Cc2ccc(C(F)(F)C(F)(F)F)cc2N=C(N)C1` [Toll-like receptor modulator]: in assay [1] (Well no.=8077), the remaining activity at 1.25 µM was determined as 108%. In assay [2] (Well no.=8077), the remaining activity at 3.75 µM amounted to 95.6%.
For the compound `Cc1ccc(C(=O)c2ccc(CC(=O)O)n2C)cc1` [Tolmetin], the remaining activity at 1.25 µM in assay [1] (Well no.=1998) was found to be 101%. Besides, in assay [2] (Well no.=1998), the remaining activity at 3.75 µM was 101%.
Regarding `Cc1cccc(N(C)C(=S)Oc2ccc3ccccc3c2)c1` [Tolnaftate], the remaining activity at 1.25 µM in assay [1] (Well no.=4720) was determined as 105%. In addition, the remaining activity at 3.75 µM in assay [2] (Well no.=4720) is 106%.
Take `Cc1ccc(C(=O)C(C)CN2CCCCC2)cc1` (stereo not drawn) [Tolperisone (hydrochloride)]: the remaining activity at 1.25 µM in assay [1] (Well no.=7498) amounted to 99%. Also, the remaining activity at 3.75 µM in assay [2] (Well no.=7498) is 100%.
With `Cc1ccc(O)c([C@H](CCN(C(C)C)C(C)C)c2ccccc2)c1` [Tolterodine tartrate (Detrol LA)], in assay [1] (Well no.=4918), the remaining activity at 1.25 µM was 98%. The remaining activity at 3.75 µM in assay [2] (Well no.=4918) amounted to 94.6%.
